Assay in the first series: not given
The following applies: human, 2 h, 20 µM, pH 7.4.
Turning to `Nc1c2c(nc3ccccc13)CCCC2` [Tacrine], the RI integrated area was 243.5 count.

A further series is described as follows: cysteine trapping assay ([35S]cysteine, HPLC with radiomatic detector) for reactive metabolites. The following applies: human liver microsome 2 mg/mL, L-[35S]-Cysteine, NADPH, 37 °C, 2 h.
Description: The reagents for making the reaction solution were phosphate buffer (pH 7.4; 100 mM), ethylenediaminetetraacetic acid (EDTA; 1 mM) (Tokyo Kasei, Tokyo, Japan), MgCl2 hexahydrate (Fuji Film Wako Co., Ltd., Osaka, Japan, reagent special grade; 3 mM), glucose-6-phosphate (G6P; 5 mM) (Roche, Basel, Switzerland), G6P dehydrogenase (G6PDH; 1 IU) (Oriental Yeast Co., Ltd., Tokyo, Japan), human liver microsome solution (Xenotech, Kansas City, MO, USA; 2 mg/mL), and L-[35S]-Cysteine (PerkinElmer Japan Co., Ltd., Kanagawa, Japan; 3.7 MBq/mL), which were prepared using ultrapure water. The evaluation compound was dissolved in dimethyl sulfoxide (DMSO) and its concentration was adjusted to 4 mM. This was used as a substrate solution.
On ice, 239 µL of the reaction solution was dispensed into a glass tube and then 1.25 µL of the substrate solution was added, mixed, and placed in a water bath (PERSONAL-11, Taitec Co., Ltd., Saitama, Japan) at 37 °C. After pre-incubation for 5 min, 10 µL of 25 mM nicotinamide adenine dinucleotide phosphate (NADPH) (Roche, Basel, Switzerland) solution was added and mixed to a final concentration of 20 µM to initiate a metabolic reaction and incubated in a water bath at 37 °C for 2 h. After incubation, 500 µL of acetonitrile was added and mixed, and the tube was chilled on ice to deproteinize, after which 50 µL of 250 mM GSH solution was added and mixed to stop the reaction, and centrifuged (approximately 1500× g, 4°C, 10 min, CF16RXII, Hitachi, Ltd., Tokyo, Japan). After centrifugation, 750 µL of the supernatant was transferred to a new glass tube and concentrated by vacufugation (VC-96N, Taitec Co., Ltd., Saitama, Japan) for 2 h. After concentrating the solution, we added 100 µL of the redissolving solution (40% methanol solution), mixed it with a vortex (IS-MBI minimixer, Ikeda Rika Co., Ltd., Tokyo, Japan) to redissolve, and then the sample was placed in a filter tube [Merck Millipore, Darmstadt, Germany] and centrifuged (approximately 5000× g, room temperature, 10 min).
Both High Performance Liquid Chromatography (HPLC) (Nexera XR, Shimadzu Corporation, Kyoto, Japan) and a radiomatic detector (Radiomatic 610TR, PerkinElmer Japan Co., Ltd.) were used to analyze the prepared samples. The 35S content was detected by running the separated sample via the 45-min analytical method through a radiomatic detector. The mobile phase was composed of a gradient of 0.1% (v/v) formic acid/water and 0.1% (v/v) formic acid/acetonitrile, and the chromatographic separation was performed using a column (Synergi 4 μm Hydro-RP 80A 150 × 3.00 mm, Phenomenex, Torrance, CA, USA).
Considering this, the amount of covalent binding in microsomes in the in vitro covalent binding test of 50 pmol/g or more was judged as a risk. The threshold of the total RI integrated area in cysteine trapping at that time was about 1000 counts. Therefore, we labeled compounds with more than 1000 counts of RI integrated area as positive, and those with less than 1000 counts as negative.
On to `C[C@H]1COc2c(N3CCN(C)CC3)c(F)cc3c(=O)c(C(=O)O)cn1c23` [Levofloxacin], for which the RI integrated area was 150.3 count.
Same read-out and setting: with `CC(C)c1nc(CN(C)C(=O)N[C@H](C(=O)N[C@@H](Cc2ccccc2)C[C@H](O)[C@H](Cc2ccccc2)NC(=O)OCc2cncs2)C(C)C)cs1` [Ritonavir] the figure was 593.9 count; with `NC(=O)N1c2ccccc2C=Cc2ccccc21` [Carbamazepine], 61.8 count; with `Cc1c(N(C)C)c(=O)n(-c2ccccc2)n1C` [Aminopyrine], 44.3 count.
The same measure, in the same setting: with `CCc1oc2ccccc2c1C(=O)c1cc(Br)c(O)c(Br)c1` [Benzbromarone] the figure was 4516.4 count.
Same read-out and setting: the same measure for `Cc1c(C)c2c(c(C)c1O)CCC(C)(COc1ccc(CC3SC(=O)NC3=O)cc1)O2` (stereo not shown) [Troglitazone]: 521.7 count; for `CCN(CC)Cc1cc(Nc2ccnc3cc(Cl)ccc23)ccc1O` [Amodiaquine]: 346.7 count.
`CC/C(=C(\c1ccccc1)c1ccc(OCCN(C)C)cc1)c1ccccc1` [Tamoxifen]: the RI integrated area is listed as 162.1 count.
Same read-out and setting: the same measure for `COc1cc(C(=O)NS(=O)(=O)c2ccccc2C)ccc1Cc1cn(C)c2ccc(NC(=O)OC3CCCC3)cc12` [Zafirlukast]: 263.4 count; for `Cn1c(=O)c2c(ncn2C)n(C)c1=O` [Caffeine]: 22.4 count; for `Cc1cc(CC(=O)O)n(C)c1C(=O)c1ccc(Cl)cc1` [Zomepirac]: 217.5 count.
Same read-out and setting: the same measure for `CC(C)NCC(O)COc1cccc2ccccc12` (stereo not shown) [Propranolol]: 3667.2 count; for `CNCCC(Oc1ccc(C(F)(F)F)cc1)c1ccccc1` (stereo not shown) [Fluoxetine]: 153.8 count; for `CC[C@H](C)C(=O)O[C@H]1C[C@H](O)C=C2C=C[C@H](C)[C@H](CC[C@@H](O)C[C@@H](O)CC(=O)O)[C@H]21` [Pravastatin]: 25.4 count.
On the same count and under the same terms, the same measure for `CN(CCOc1ccc(CC2SC(=O)NC2=O)cc1)c1ccccn1` (stereo not shown) [Rosiglitazone]: 1593.7 count; for `CC(C)C(=O)Nc1ccc([N+](=O)[O-])c(C(F)(F)F)c1` [Flutamide]: 680.4 count; for `O=C1NC(=O)C(c2ccccc2)(c2ccccc2)N1` [Phenytoin]: 34.7 count.
As for `CCc1ccc(CCOc2ccc(CC3SC(=O)NC3=O)cc2)nc1` (stereo not shown) [Pioglitazone], the RI integrated area turned out to be 105.8 count.
Take `O=C(O)Cc1ccccc1Nc1c(Cl)cccc1Cl` [Diclofenac]: the RI integrated area came out at 1230.1 count.
The same measure, in the same setting: the same measure for `O=C(O)COc1ccc(C(=O)c2cccs2)c(Cl)c1Cl` [Tienilic acid]: 3783.7 count; for `COc1ccc2c(c1)c(CC(=O)O)c(C)n2C(=O)c1ccc(Cl)cc1` [Indomethacin]: 89.0 count; for `COC(=O)[C@H](c1ccccc1Cl)N1CCc2sccc2C1` [Clopidogrel]: 708.2 count.

Staying with this series, now noted: threshold area 1000.
As to `Cc1c(C)c2c(c(C)c1O)CCC(C)(COc1ccc(CC3SC(=O)NC3=O)cc1)O2` (stereo not shown) [Troglitazone], the “outcome in the cysteine trapping assay” value is reported as “negative”.
For the compound `CCc1ccc(CCOc2ccc(CC3SC(=O)NC3=O)cc2)nc1` (stereo not shown) [Pioglitazone], the “outcome in the cysteine trapping assay” value was “negative”.

Values taken from PMC11117661, “Development of a Novel In Silico Classification Model to Assess Reactive Metabolite Formation in the Cysteine Trapping Assay and Investigation of Important Substructures” (Biomolecules, 2024).
